# Reference: patent US7045532B2 (Millennium Pharmaceuticals, Inc., priority 1999, dated 2006)
# pKi: −log10 of the molar value.
# Legend:
# [1] = target: T1, ACE-2 (Homo sapiens, UniProt Q9BYF1); assay: ACE-2 Competitive Substrate Assay (ACS Assay); type: biochemical; conditions: for pKi: Ki class, compounds tested in 5% DMSO, 12 concentrations, read-out: Human ACE-2 Activity
# T1 construct: a stop codon inserted after the serine immediately preceding the transmembrane domain; made in house; host or cells: CHO K1 cells (transient transfection, purified from conditioned medium)
# T1 sequence (Q9BYF1 18-740 limits assumed): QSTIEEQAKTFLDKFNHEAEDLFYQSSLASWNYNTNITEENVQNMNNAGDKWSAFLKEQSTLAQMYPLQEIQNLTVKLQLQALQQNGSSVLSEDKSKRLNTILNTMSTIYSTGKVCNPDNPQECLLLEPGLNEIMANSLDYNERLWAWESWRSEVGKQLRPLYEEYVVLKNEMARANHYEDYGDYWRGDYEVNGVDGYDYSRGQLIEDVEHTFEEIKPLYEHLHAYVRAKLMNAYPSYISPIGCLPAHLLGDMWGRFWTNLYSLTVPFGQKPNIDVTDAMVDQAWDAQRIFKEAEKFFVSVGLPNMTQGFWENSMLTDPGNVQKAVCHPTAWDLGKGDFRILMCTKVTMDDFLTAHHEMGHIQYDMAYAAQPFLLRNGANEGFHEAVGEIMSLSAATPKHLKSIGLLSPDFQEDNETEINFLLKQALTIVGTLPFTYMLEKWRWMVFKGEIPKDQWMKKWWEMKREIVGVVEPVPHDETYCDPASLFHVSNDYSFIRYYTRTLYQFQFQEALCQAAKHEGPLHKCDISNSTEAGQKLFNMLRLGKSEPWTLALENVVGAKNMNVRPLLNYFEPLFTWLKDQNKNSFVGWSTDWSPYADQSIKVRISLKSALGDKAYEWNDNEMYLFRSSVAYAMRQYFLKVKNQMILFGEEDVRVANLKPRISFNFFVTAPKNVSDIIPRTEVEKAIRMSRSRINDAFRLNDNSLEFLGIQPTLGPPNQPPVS
# [2] = target: ACE-2 (Rattus norvegicus, UniProt Q5EGZ1); assay: ACE-2 Competitive Substrate Assay, rat ACE-2; type: biochemical; conditions: Ki class; compounds tested in 5% DMSO, 12 concentrations
# Sequence of ACE-2 (Rattus norvegicus, UniProt Q5EGZ1) (Q5EGZ1 18-805): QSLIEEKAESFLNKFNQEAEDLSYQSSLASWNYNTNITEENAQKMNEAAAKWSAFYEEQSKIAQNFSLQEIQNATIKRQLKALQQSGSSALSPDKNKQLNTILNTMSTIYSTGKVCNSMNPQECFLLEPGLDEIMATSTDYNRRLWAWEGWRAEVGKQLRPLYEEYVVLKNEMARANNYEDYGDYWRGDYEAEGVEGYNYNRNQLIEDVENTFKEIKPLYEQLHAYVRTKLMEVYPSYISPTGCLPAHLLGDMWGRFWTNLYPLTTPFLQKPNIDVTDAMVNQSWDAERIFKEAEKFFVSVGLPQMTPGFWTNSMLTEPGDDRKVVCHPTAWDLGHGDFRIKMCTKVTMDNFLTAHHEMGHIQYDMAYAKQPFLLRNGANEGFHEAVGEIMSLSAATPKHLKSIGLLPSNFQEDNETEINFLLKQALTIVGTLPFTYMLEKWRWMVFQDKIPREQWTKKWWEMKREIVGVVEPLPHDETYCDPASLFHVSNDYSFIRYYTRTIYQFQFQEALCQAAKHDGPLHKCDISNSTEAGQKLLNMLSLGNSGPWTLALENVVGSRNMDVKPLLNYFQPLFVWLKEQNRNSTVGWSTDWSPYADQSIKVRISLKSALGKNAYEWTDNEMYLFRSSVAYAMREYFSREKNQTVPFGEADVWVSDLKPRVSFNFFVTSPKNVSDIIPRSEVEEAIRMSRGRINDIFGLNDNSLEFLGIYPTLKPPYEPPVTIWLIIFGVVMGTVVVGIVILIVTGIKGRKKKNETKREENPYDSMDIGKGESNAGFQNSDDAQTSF
# Method: ACE-2 enzymatic activity was assayed in microtitre plates by the following procedure. The ACE-2 assay buffer used contained 50 mM MES (Boehringer-Mannheim), 300 mM NaCl (Sigma) and 0.01% Brij-35 (Pierce Chemical Co.) at pH 6.5.
# Reactions were mixed and incubated at 25° C.
# The activity of the test compounds was investigated using the procedure outlined above. The compounds were tested in 5% DMSO. Enzyme activity was measured at 12 compound concentrations.
# [3] = target: T2, ACE (Sigma, A2580) (Sus scrofa, UniProt F1RRW5); assay: ACE enzymatic activity assay; type: biochemical, porcine; conditions: Ki class; compounds tested in 5% DMSO, 12 concentrations
# T2 construct: ACE from porcine kidney; purchased Sigma A2580; host or cells: porcine kidney
# T2 sequence (F1RRW5 34-1309): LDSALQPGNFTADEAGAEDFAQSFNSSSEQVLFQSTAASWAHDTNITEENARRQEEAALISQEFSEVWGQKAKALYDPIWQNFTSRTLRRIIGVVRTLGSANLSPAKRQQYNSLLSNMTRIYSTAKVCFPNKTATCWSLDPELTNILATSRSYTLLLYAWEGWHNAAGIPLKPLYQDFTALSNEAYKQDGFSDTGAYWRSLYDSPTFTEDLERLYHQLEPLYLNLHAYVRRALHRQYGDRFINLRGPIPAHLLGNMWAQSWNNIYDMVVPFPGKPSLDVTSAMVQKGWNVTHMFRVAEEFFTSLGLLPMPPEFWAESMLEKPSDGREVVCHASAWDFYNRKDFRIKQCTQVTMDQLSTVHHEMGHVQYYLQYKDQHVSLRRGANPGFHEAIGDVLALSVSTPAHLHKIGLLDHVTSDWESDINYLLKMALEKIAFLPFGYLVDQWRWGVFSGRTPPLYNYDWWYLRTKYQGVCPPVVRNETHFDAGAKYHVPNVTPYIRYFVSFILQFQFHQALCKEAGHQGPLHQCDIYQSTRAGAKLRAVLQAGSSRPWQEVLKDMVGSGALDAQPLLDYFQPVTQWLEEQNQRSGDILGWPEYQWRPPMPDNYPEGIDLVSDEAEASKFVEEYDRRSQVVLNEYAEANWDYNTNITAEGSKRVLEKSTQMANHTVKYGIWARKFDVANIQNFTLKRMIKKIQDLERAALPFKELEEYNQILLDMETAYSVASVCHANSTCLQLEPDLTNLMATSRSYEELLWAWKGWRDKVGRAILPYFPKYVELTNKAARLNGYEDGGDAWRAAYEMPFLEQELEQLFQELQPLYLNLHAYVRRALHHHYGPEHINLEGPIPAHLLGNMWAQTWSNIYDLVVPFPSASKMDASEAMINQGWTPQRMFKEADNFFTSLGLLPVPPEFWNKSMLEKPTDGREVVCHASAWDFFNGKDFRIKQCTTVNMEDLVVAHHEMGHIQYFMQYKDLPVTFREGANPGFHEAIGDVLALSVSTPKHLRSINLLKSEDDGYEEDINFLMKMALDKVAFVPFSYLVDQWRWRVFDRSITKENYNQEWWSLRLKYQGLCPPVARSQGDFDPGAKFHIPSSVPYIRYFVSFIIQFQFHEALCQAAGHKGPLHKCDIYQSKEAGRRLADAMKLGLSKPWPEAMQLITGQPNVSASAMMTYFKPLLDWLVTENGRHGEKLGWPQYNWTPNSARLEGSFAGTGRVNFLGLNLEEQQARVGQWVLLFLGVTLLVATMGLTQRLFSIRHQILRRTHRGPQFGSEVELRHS
# Procedure, shortened: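 Fluorogenic substrate cleavage by 1 nM ACE, read at 320/405 nm after EDTA stop at ~30 min. Reactions at 25 °C, pH 7.5, in HEPES/NaCl/Brij-35 buffer; compounds tested at 12 concentrations in 5% DMSO.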
# [4] = target: T3, Carboxypeptidase A (Bos taurus, UniProt P00730); assay: Carboxypeptidase A activity assay; type: biochemical; conditions: Ki class; compounds tested in 5% DMSO, 12 concentrations
# T3 sequence (P00730 111-419): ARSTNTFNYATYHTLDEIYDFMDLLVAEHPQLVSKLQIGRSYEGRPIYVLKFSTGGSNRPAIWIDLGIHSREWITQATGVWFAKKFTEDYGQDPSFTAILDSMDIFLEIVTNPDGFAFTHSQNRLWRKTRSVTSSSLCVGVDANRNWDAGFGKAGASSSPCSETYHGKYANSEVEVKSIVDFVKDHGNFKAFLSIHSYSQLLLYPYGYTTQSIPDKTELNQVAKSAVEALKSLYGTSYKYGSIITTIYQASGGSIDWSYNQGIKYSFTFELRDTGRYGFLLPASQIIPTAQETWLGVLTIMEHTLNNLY
# Procedure, shortened: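 Ki obtained by correcting apparent Ki for substrate, Ki=Kiapp/(1+[S]/Km), from 12-concentration series. Enzyme activity read by absorbance at 328 nm with 5% DMSO present, EDTA stop.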
Structure (SMILES),pKi [1],relative activity of the diastereomers EZ and FA ([1]; assay not given),pKi [2],pKi [3],pKi [4]
"CC(C)CC(N[C@@H](Cc1cncn1Cc1ccccc1)C(=O)O)C(=O)O (single isomer, unassigned) [EZ, 2-[2-(3-Benzyl-3H-imidazol-4-yl)-1-carboxy-ethylamino]-4-methyl-pentanoic acid]",< 6.30,more active diastereomer,> 7.00,< 4.30,< 4.30
"CC(C)CC(N[C@@H](Cc1cncn1COCc1ccccc1)C(=O)O)C(=O)O (single isomer, unassigned) [FG, 2-[2-(3-Benzyloxymethyl-3H-imidazol-4-yl)-1-carboxy-ethylamino]-4-methyl-pentanoic acid]",< 6.30,–,< 6.30,< 4.30,< 4.30
"CC(C)CC(N[C@@H](Cc1cncn1COCc1ccccc1)C(=O)O)C(=O)O (single isomer, unassigned) [FH, 2-[2-(3-Benzyloxymethyl-3H-imidazol-4-yl)-1-carboxy-ethylamino]-4-methyl-pentanoic acid]",< 6.30,–,< 6.30,< 4.30,< 4.30
"COc1ccc(CCNC(=O)[C@H](Cc2cnc[nH]2)NC(CC(C)C)C(=O)O)cc1 (single isomer, unassigned) [FK, 2-{2-(3H-Imidazol-4-yl)-1-[2-(4-methoxy-phenyl)-ethylcarbamoyl]-ethylamino}-4-methyl-pentanoic acid]",< 6.30,–,< 6.30,< 4.30,< 4.30
"CC(C)CC(N[C@H](CO)Cc1c[nH]cn1)C(=O)O (single isomer, unassigned) [FO, 2-[1-Hydroxymethyl-2-(1H-imidazol-4-yl)-ethylamino)4-methyl-pentanoic acid]",< 6.30,–,< 6.30,< 4.30,< 4.30
"CC(C)CC(N[C@@H](Cc1cnc[nH]1)C(=O)NCCc1ccccc1)C(=O)O (single isomer, unassigned) [FW, 2-[2-(3H-Imidazol-4-yl)-1-phenethylcarbamoyl-ethylamino]-4-methyl-pentanoic acid]",< 6.30,–,< 6.30,< 4.30,< 4.30
"CCCCC(N[C@@H](Cc1cncn1Cc1ccccc1)C(=O)O)C(=O)O (single isomer, unassigned) [FY, 2-[2-(3H-Benzyl-3-imidazol-4-yl)-1-carboxy-ethylamino]-hexanoicacid]",< 6.30,–,> 7.00,< 4.30,< 4.30
"CC(C)CC(N[C@@H](Cc1cncn1Cc1cccc([N+](=O)[O-])c1)C(=O)O)C(=O)O (single isomer, unassigned) [GB, 2-[1-Carboxy-2-[3-(3-nitro-benzyl)-3H-imidazol-4-yl]-ethylamino]-4-methyl-pentanoic acid]",< 6.30,–,6.30 to 7.00,< 4.30,< 4.30
"CCC(C)C(NC(Cc1cncn1Cc1ccccc1)C(=O)O)C(=O)O (single isomer, unassigned) [GC, 2-[2-(3-Benzyl-3H-imidazol-4-yl)-1-carboxy-ethylamino]-3-methyl-pentanoic acid]",< 6.30,–,6.30 to 7.00,< 4.30,4.30 to 5.00
"O=C(O)C(Cc1ccccc1)N[C@@H](Cc1cncn1Cc1ccccc1)C(=O)O (single isomer, unassigned) [GF, 3-(3-Benzyl-3H-imidazol-4-yl)-2-(1-carboxy-2-phenyl-ethylamino)-propionic acid]",< 6.30,–,6.30 to 7.00,< 4.30,> 5.00
"CC(C)CC(N[C@@H](Cc1cncn1Cc1cccc2ccccc12)C(=O)O)C(=O)O (single isomer, unassigned) [GK, 2-[1-Carboxy-2-(3-naphthalen-1-ylmethyl-3Himidazol-4-yl)-ethylamino]4-methyl-pentanoic acid]",> 7.00,–,> 7.00,< 4.30,4.30 to 5.00
